Measured values reported in US8445510B2, “Fused bicyclic kinase inhibitors” (OSI Pharmaceuticals, LLC, priority 2011, dated 2013).

Assays:
[1] = target: T1, RON (Homo sapiens, UniProt Q04912); assay: sfRON cell mechanistic assay (HeLa), phosphorylated RON ELISA; format: cell-based; conditions: HeLa cells transfected with sfRON; inhibition of phosphorylated RON; four hours incubation; at least duplicate experiments; read-out: sfRON mech IC50
T1 sequence (Q04912 913-1400): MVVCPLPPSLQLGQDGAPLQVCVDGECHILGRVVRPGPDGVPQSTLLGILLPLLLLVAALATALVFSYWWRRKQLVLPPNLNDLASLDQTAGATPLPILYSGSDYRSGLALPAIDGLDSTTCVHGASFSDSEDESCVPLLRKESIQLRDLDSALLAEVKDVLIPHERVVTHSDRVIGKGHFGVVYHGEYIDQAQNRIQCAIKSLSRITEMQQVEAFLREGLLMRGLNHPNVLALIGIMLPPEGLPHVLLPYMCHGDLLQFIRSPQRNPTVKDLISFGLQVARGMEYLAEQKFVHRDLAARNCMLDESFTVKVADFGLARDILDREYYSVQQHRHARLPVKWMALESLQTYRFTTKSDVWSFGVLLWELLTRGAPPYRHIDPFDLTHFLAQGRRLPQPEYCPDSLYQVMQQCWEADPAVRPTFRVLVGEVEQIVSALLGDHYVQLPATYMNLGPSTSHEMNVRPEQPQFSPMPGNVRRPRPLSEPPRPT
Method in brief: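 HeLa cells transiently transfected with sfRON plasmid, then exposed 4 h at 37 °C to a 6-point compound series (typically 10 μM to 3 nM, 0.5% DMSO). Phospho-RON (pY1238/1239) in lysates measured by sandwich ELISA with luminescence. IC50 from 4-parameter fit of percent-of-DMSO-control data, at least duplicate runs.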

[2] = test system: Karpas-299 cells; assay: Karpas-299 cell proliferation assay (CellTiter-Glo); format: cell-based; conditions: Homo sapiens, 72 h; Karpas-299 cell line (NPM-ALK); 3 days incubation; at least duplicate experiments; read-out: Prolif. IC50

Row | Compound | IC50 [1] | IC50 [2]
1 | COc1ccc(F)c(Cl)c1[C@@H](C)c1c[nH]c2ncc(-c3cnn(CC(C)(C)O)c3C)cc12 [Example 8, 1-(4-{3-[(1S)-1-(2-Chloro-3-fluoro-6-methoxyphenyl)ethyl]-1H-pyrrolo[2,3-b]pyridin-5-yl}-5-methyl-1H-pyrazol-1-yl)-2-methylpropan-2-ol] | 200 to 1000 nM | 50 to 200 nM
2 | [2H]C([2H])([2H])[C@H](c1c(OC)ccc(F)c1Cl)c1c[nH]c2ncc(-c3cnn([C@H]4CC[C@H](O)CC4)c3C)cc12 [Example 111, trans-4-(4-{3-[(1S)-1-(2-Chloro-3-fluoro-6-methoxyphenyl)(2,2,2-^2H3)ethyl]-1H-pyrrolo[2,3-b]pyridin-5-yl}-5-methyl-1H-pyrazol-1-yl)cyclohexanol] | 200 to 1000 nM | ≤ 50 nM
3 | COc1ccc(F)c(Cl)c1[C@@H](C)c1c[nH]c2ncc(-c3cnn(C)c3OC)cc12 [Example 62, 3-[(1S)-1-(2-chloro-3-fluoro-6-methoxyphenyl)ethyl]-5-(5-methoxy-1-methyl-1H-pyrazol-4-yl)-1H-pyrrolo[2,3-b]pyridine] | > 1000 nM | 200 to 1000 nM
4 | C[C@H](c1c(OC(F)F)ccc(F)c1Cl)c1c[nH]c2ncc(-c3cnn([C@H]4CC[C@H](O)CC4)c3F)cc12 [Example 84, trans-4-[4-(3-{(1S)-1-[2-Chloro-6-(difluoromethoxy)-3-fluorophenyl]ethyl}-1H-pyrrolo[2,3-b]pyridin-5-yl)-5-fluoro-1H-pyrazol-1-yl]cyclohexanol] | 200 to 1000 nM | 50 to 200 nM
5 | COc1ccc(F)c(Cl)c1[C@@H](C)c1c[nH]c2ncc(-c3cnn(C)c3CO)cc12 [Example 44, (4-{3-[(1S)-1-(2-Chloro-3-fluoro-6-methoxyphenyl)ethyl]-1H-pyrrolo[2,3-b]pyridin-5-yl}-1-methyl-1H-pyrazol-5-yl)methanol] | > 1000 nM | 50 to 200 nM
6 | Cc1c(-c2cnc3[nH]cc([C@H](C)c4c(OC(F)F)ccc(F)c4Cl)c3c2)cnn1[C@H]1CC[C@H](O)CC1 [Example 74, trans-4-[4-(3-{(1S)-1-[2-Chloro-6-(difluoromethoxy)-3-fluorophenyl]ethyl}-1H-pyrrolo[2,3-b]pyridin-5-yl)-5-methyl-1H-pyrazol-1-yl]cyclohexanol] | ≤ 200 nM | ≤ 50 nM
7 | [2H]C([2H])([2H])Oc1ccc(F)c(Cl)c1[C@@H](C)c1c[nH]c2ncc(-c3cnn([C@H]4CC[C@H](O)CC4)c3C)cc12 [Example 107, trans-4-(4-{3-[(1S)-1-{2-Chloro-3-fluoro-6-[(^2H3)methyloxy]phenyl}ethyl]-1H-pyrrolo[2,3-b]pyridin-5-yl}-5-methyl-1H-pyrazol-1-yl)cyclohexanol] | 200 to 1000 nM | 50 to 200 nM
8 | [2H]C([2H])([2H])c1c(-c2cnc3[nH]cc([C@H](C)c4c(OC(F)F)ccc(F)c4Cl)c3c2)cnn1[C@H]1CC[C@H](O)CC1 [Example 85, trans-4-[4-(3-{(1S)-1-[2-Chloro-6-(difluoromethoxy)-3-fluorophenyl]ethyl}-1H-pyrrolo[2,3-b]pyridin-5-yl)-5-(^2H3)methyl-1H-pyrazol-1-yl]cyclohexanol] | 200 to 1000 nM | ≤ 50 nM
9 | COc1ccc(F)c(Cl)c1[C@@H](CF)c1c[nH]c2ncc(-c3cnn([C@H]4CC[C@H](O)CC4)c3C)cc12 [Example 121, trans-4-(4-{3-[(1S)-1-(2-Chloro-3-fluoro-6-methoxyphenyl)-2-fluoroethyl]-1H-pyrrolo[2,3-b]pyridin-5-yl}-5-methyl-1H-pyrazol-1-yl)cyclohexanol] | 200 to 1000 nM | ≤ 50 nM
10 | COc1ccc(F)c(Cl)c1[C@@H](C)c1c[nH]c2ncc(-c3c(C)nn(C)c3Cl)cc12 [Example 63, 5-(5-Chloro-1,3-dimethyl-1H-pyrazol-4-yl)-3-[(1S)-1-(2-chloro-3-fluoro-6-methoxyphenyl)ethyl]-1H-pyrrolo[2,3-b]pyridine] | > 1000 nM | 200 to 1000 nM
11 | COc1ccc(F)c(Cl)c1[C@@H](C)c1c[nH]c2ncc(-c3c(C)nn(C)c3C)cc12 [Example 4, 3-[(1S)-1-(2-Chloro-3-fluoro-6-methoxyphenyl)ethyl]-5-(1,3,5-trimethyl-1H-pyrazol-4-yl)-1H-pyrrolo[2,3-b]pyridine] | > 1000 nM | 50 to 200 nM
12 | COc1ccc(F)c(Cl)c1[C@@H](C)c1c[nH]c2ncc(-c3cncn3C)cc12 [Example 64, 3-[(1S)-1-(2-Chloro-3-fluoro-6-methoxyphenyl)ethyl]-5-(1-methyl-1H-imidazol-5-yl)-1H-pyrrolo[2,3-b]pyridine] | > 1000 nM | 200 to 1000 nM
13 | C[C@H](c1c(OC(F)F)ccc(F)c1Cl)c1c[nH]c2ncc(-c3cnn([C@H]4CC[C@H](O)CC4)c3Cl)cc12 [Example 82, trans-4-[5-Chloro-4-(3-{(1S)-1-[2-chloro-6-(difluoromethoxy)-3-fluorophenyl]ethyl}-1H-pyrrolo[2,3-b]pyridin-5-yl)-1H-pyrazol-1-yl]cyclohexanol] | 200 to 1000 nM | 50 to 200 nM
14 | COc1ccc(F)c(Cl)c1[C@@H](C)c1c[nH]c2ncc(-c3cnn([C@H]4CC[C@H](O)CC4)c3Cl)cc12 [Example 49, trans-4-(5-Chloro-4-{3-[(1S)-1-(2-chloro-3-fluoro-6-methoxyphenyl)ethyl]-1H-pyrrolo[2,3-b]pyridin-5-yl}-1H-pyrazol-1-yl)cyclohexanol] | > 1000 nM | 50 to 200 nM
15 | CCOc1ccc(F)c(Cl)c1[C@@H](C)c1c[nH]c2ncc(-c3cnn([C@H]4CC[C@H](O)CC4)c3C)cc12 [Example 103, trans-4-(4-{3-[(1S)-1-(2-Chloro-6-ethoxy-3-fluorophenyl)ethyl]-1H-pyrrolo[2,3-b]pyridin-5-yl}-5-methyl-1H-pyrazol-1-yl)cyclohexanol] | ≤ 200 nM | ≤ 50 nM
16 | Cc1c(-c2cnc3[nH]cc([C@@H](CF)c4c(OC(F)F)ccc(F)c4Cl)c3c2)cnn1[C@H]1CC[C@H](O)CC1 [Example 123, trans-4-[4-(3-{(1R)-1-[2-chloro-6-(difluoromethoxy)-3-fluorophenyl]-2-fluoroethyl}-1H-pyrrolo[2,3-b]pyridin-5-yl)-5-methyl-1H-pyrazol-1-yl]cyclohexanol] | 200 to 1000 nM | 50 to 200 nM
17 | CCc1c(-c2cnc3[nH]cc([C@H](C)c4c(OC)ccc(F)c4Cl)c3c2)cnn1[C@H]1CC[C@H](O)CC1 [Example 48, trans-4-(4-{3-[(1S)-1-(2-Chloro-3-fluoro-6-methoxyphenyl)ethyl]-1H-pyrrolo[2,3-b]pyridin-5-yl}-5-ethyl-1H-pyrazol-1-yl)cyclohexanol] | > 1000 nM | 50 to 200 nM
18 | COc1ccc(F)c(Cl)c1[C@@H](C)c1c[nH]c2ncc(-c3c(C)nn(C)c3CO)cc12 [Example 45, (4-{3-[(1S)-1-(2-Chloro-3-fluoro-6-methoxyphenyl)ethyl]-1H-pyrrolo[2,3-b]pyridin-5-yl}-1,3-dimethyl-1H-pyrazol-5-yl)methanol] | > 1000 nM | 50 to 200 nM
19 | COc1ccc(F)c(Cl)c1[C@@H](C)c1c[nH]c2ncc(-c3cnn([C@H]4CC[C@@H](O)CC4)c3C)cc12 [Example 52, cis-4-(4-{3-[(1S)-1-(2-Chloro-3-fluoro-6-methoxyphenyl)ethyl]-1H-pyrrolo[2,3-b]pyridin-5-yl}-5-methyl-1H-pyrazol-1-yl)cyclohexanol] | 200 to 1000 nM | 50 to 200 nM
